Laboratory results taken from patent US9045454B2, “Bicyclic pyrrole derivatives useful as agonists of GPR120” (Janssen Pharmaceutica NV, priority 2013, dated 2015).

Test system: C57bl/6J Mice
Experiment: GPR120 C57bl6 Mouse IPGTT
Assay type: in vivo
Conditions: 30.0 mg/kg, dosed 30 minutes prior to glucose (IP 1.5 g/kg)
Experimental: Male, C57bl/6J Mice were ordered in at 8 weeks of age from Jackson Labs. Individual mice weighed anywhere in the range of 25-30 grams on study day. The mice were fasted, with removal of food occurring at 7 am on the morning of the study. Animals were moved into the room at 10:00 am, to give them time to acclimate. Glucose (insulin syringes) was drawn up either the night before or the morning of the study. Glucose was dosed (IP) at 1.5 g/kg at 7.5 ml/kg (20% glucose straight TEKNOVA, 250 ml sterile bottle w/ catalogue number G0525). Test compounds were kept spinning and were only drawn into the syringes prior to study commencement. Animals were bled via tail snip to determine basal glucose levels prior to dosing of treatments. An Ascensia BREEZE Blood Glucose Monitoring System by Bayer (using unique 10-test disks) was used for determining glucose levels. The bleeds started at approximately 12:45 pm and dosing started, at 1-minute intervals, immediately after. All groups were dosed 30 minutes prior to glucose administration at a dose volume of 10 ml/kg (the dose volume was calculated separately for each individual animal). Thirty minutes after the first dose animals were bled again for a second baseline, or T=0, and immediately dosed with glucose via an i.p. injection. The exact dose volume for glucose was also calculated separately for each individual animal. […]

Structure (SMILES): Cc1c(CCC(=O)O)ccc(OCc2cccn2-c2ccc(Cl)cc2)c1C [Compound 1, 3-(4-{[1-(4-Chlorophenyl)-1H-pyrrol-2-yl]methoxy}-2,3-dimethylphenyl)propanoic acid]
- GPR120 C57bl6 Mouse IPGTT Results: not different
